Assay results: ChEMBL document CHEMBL3885861, “Open TG-GATES”

Organism: Rattus norvegicus
Experiment: Open TG-GATES - Regimen: Single
Type: toxicity, organism-based, Sprague-Dawley
Parameters: regimen Single, gender Male, age 6 weeks
Details: in vivo, po, 100 mg/kg, route gavage; for APTT / Bas / Eos / Fbg / Hb / Ht / Lym / MCH / MCHC / MCV / Mono / Neu / PT / Plat / RBC / Ret / WBC: tissue Blood; for KIDNEY_L / KIDNEY_R / KIDNEY_TOTAL: tissue Kidney; for LIVER: tissue Liver; for A/G / ALP / ALT / AST / BUN / CRE / Ca / Cl / DBIL / GLC / IP / K / LDH / Na / PL / RALB / TBIL / TC / TG / TP / gamma-GTP: tissue Plasma

O=C1CN(/N=C/c2ccc([N+](=O)[O-])o2)C(=O)N1 [NITROFURANTOIN]
TERMINAL_BW (6 h, dose level Low): 199.6 g
APTT (6 h, dose level High): 18.6 s
Bas (6 h, dose level High): 0%
Eos (6 h, dose level High): 1%
Fbg (6 h, dose level High): 216.6 mg/dL
Hb (6 h, dose level High): 13.3 g/dL
Ht (6 h, dose level High): 38%
Lym (6 h, dose level High): 73%
MCH (6 h, dose level High): 21.6 pg
MCHC (6 h, dose level High): 35%
MCV (6 h, dose level High): 61.7 fL
Mono (6 h, dose level High): 3.2%
Neu (6 h, dose level High): 21.4%
PT (6 h, dose level High): 12.9 s
Plat (6 h, dose level High): 122 x10_4/uL
RBC (6 h, dose level High): 615 x10_4/ul
Ret (6 h, dose level High): 7.7%
WBC (6 h, dose level High): 113.2 x10_2/uL
APTT (6 h, dose level Low): 16.4 s
Eos (6 h, dose level Low): 1.2%
Fbg (6 h, dose level Low): 215.8 mg/dL
Hb (6 h, dose level Low): 13.4 g/dL
Ht (6 h, dose level Low): 40.6%
Lym (6 h, dose level Low): 74.6%
MCH (6 h, dose level Low): 21.3 pg
MCHC (6 h, dose level Low): 32.9%
MCV (6 h, dose level Low): 64.5 fL
Mono (6 h, dose level Low): 6.8%
Neu (6 h, dose level Low): 17.8%
PT (6 h, dose level Low): 11.7 s
Plat (6 h, dose level Low): 121.5 x10_4/uL
RBC (6 h, dose level Low): 629.8 x10_4/ul
Ret (6 h, dose level Low): 7%
WBC (6 h, dose level Low): 89.8 x10_2/uL
KIDNEY_L (6 h, dose level High): 1 g
KIDNEY_R (6 h, dose level High): 1 g
KIDNEY_TOTAL (6 h, dose level High): 2 g
KIDNEY_L (6 h, dose level Low): 0.9 g
KIDNEY_R (6 h, dose level Low): 0.9 g
KIDNEY_TOTAL (6 h, dose level Low): 1.8 g
LIVER (6 h, dose level High): 9.4 g
LIVER (6 h, dose level Low): 8.3 g
A/G (6 h, dose level High): 1.5
ALP (6 h, dose level High): 745.6 IU/L
ALT (6 h, dose level High): 32.2 IU/L
AST (6 h, dose level High): 64.6 IU/L
BUN (6 h, dose level High): 10.6 mg/dL
CRE (6 h, dose level High): 0.4 mg/dL
Ca (6 h, dose level High): 10.6 mg/dL
Cl (6 h, dose level High): 103.8 meq/L
DBIL (6 h, dose level High): 0.078 mg/dL
GLC (6 h, dose level High): 184.4 mg/dL
IP (6 h, dose level High): 8.9 mg/dL
K (6 h, dose level High): 4.2 meq/L
LDH (6 h, dose level High): 211 IU/L
Na (6 h, dose level High): 140.8 meq/L
PL (6 h, dose level High): 135.4 mg/dL
RALB (6 h, dose level High): 3.3 g/dL
TBIL (6 h, dose level High): 0.1 mg/dL
TC (6 h, dose level High): 78.8 mg/dL
TG (6 h, dose level High): 55 mg/dL
TP (6 h, dose level High): 5.5 g/dL
gamma-GTP (6 h, dose level High): 1.2 IU/L
A/G (6 h, dose level Low): 2.2
ALP (6 h, dose level Low): 1217 IU/L
AST (6 h, dose level Low): 66 IU/L
BUN (6 h, dose level Low): 13.6 mg/dL
Ca (6 h, dose level Low): 11 mg/dL
Cl (6 h, dose level Low): 104.6 meq/L
DBIL (6 h, dose level Low): 0.008 mg/dL
GLC (6 h, dose level Low): 190.8 mg/dL
IP (6 h, dose level Low): 8.7 mg/dL
K (6 h, dose level Low): 4.6 meq/L
LDH (6 h, dose level Low): 92.2 IU/L
Na (6 h, dose level Low): 139.4 meq/L
PL (6 h, dose level Low): 150.8 mg/dL
RALB (6 h, dose level Low): 3.9 g/dL
TBIL (6 h, dose level Low): 0.036 mg/dL
TC (6 h, dose level Low): 100 mg/dL
TG (6 h, dose level Low): 44 mg/dL
TP (6 h, dose level Low): 5.7 g/dL
gamma-GTP (6 h, dose level Low): 0.4 IU/L
TERMINAL_BW (9 h, dose level High): 213.9 g
TERMINAL_BW (9 h, dose level Low): 211 g
APTT (9 h, dose level High): 19.3 s
Bas (9 h, dose level High): 0%
Eos (9 h, dose level High): 1%
Fbg (9 h, dose level High): 245.8 mg/dL
Hb (9 h, dose level High): 13.1 g/dL
Ht (9 h, dose level High): 37.3%
Lym (9 h, dose level High): 75.4%
MCH (9 h, dose level High): 21.5 pg
MCHC (9 h, dose level High): 35.2%
MCV (9 h, dose level High): 61.1 fL
Mono (9 h, dose level High): 2.6%
Neu (9 h, dose level High): 19.8%
PT (9 h, dose level High): 12.9 s
Plat (9 h, dose level High): 126.6 x10_4/uL
RBC (9 h, dose level High): 609.4 x10_4/ul
Ret (9 h, dose level High): 8%
WBC (9 h, dose level High): 77.1 x10_2/uL
APTT (9 h, dose level Low): 19 s
Eos (9 h, dose level Low): 1.2%
Fbg (9 h, dose level Low): 229.2 mg/dL
Hb (9 h, dose level Low): 12.7 g/dL
Ht (9 h, dose level Low): 39%
Lym (9 h, dose level Low): 65.6%
MCH (9 h, dose level Low): 20.8 pg
MCHC (9 h, dose level Low): 32.7%
MCV (9 h, dose level Low): 63.6 fL
Mono (9 h, dose level Low): 9.2%
Neu (9 h, dose level Low): 24.4%
PT (9 h, dose level Low): 12.3 s
Plat (9 h, dose level Low): 124.9 x10_4/uL
RBC (9 h, dose level Low): 612.8 x10_4/ul
Ret (9 h, dose level Low): 6.7%
WBC (9 h, dose level Low): 65.8 x10_2/uL
KIDNEY_L (9 h, dose level High): 1 g
KIDNEY_R (9 h, dose level High): 1 g
KIDNEY_TOTAL (9 h, dose level High): 2 g
KIDNEY_R (9 h, dose level Low): 0.9 g
KIDNEY_TOTAL (9 h, dose level Low): 1.9 g
LIVER (9 h, dose level High): 9.3 g
LIVER (9 h, dose level Low): 9.4 g
A/G (9 h, dose level High): 1.5
ALP (9 h, dose level High): 749 IU/L
ALT (9 h, dose level High): 33.2 IU/L
AST (9 h, dose level High): 62 IU/L
BUN (9 h, dose level High): 11 mg/dL
CRE (9 h, dose level High): 0.3 mg/dL
Ca (9 h, dose level High): 10.7 mg/dL
Cl (9 h, dose level High): 103.4 meq/L
DBIL (9 h, dose level High): 0.07 mg/dL
GLC (9 h, dose level High): 191.8 mg/dL
IP (9 h, dose level High): 9.6 mg/dL
K (9 h, dose level High): 4 meq/L
LDH (9 h, dose level High): 219.8 IU/L
Na (9 h, dose level High): 141.2 meq/L
PL (9 h, dose level High): 146.6 mg/dL
RALB (9 h, dose level High): 3.2 g/dL
TBIL (9 h, dose level High): 0.1 mg/dL
TC (9 h, dose level High): 82.2 mg/dL
TG (9 h, dose level High): 42.2 mg/dL
TP (9 h, dose level High): 5.5 g/dL
gamma-GTP (9 h, dose level High): 1.2 IU/L
A/G (9 h, dose level Low): 2.1
ALP (9 h, dose level Low): 1192 IU/L
ALT (9 h, dose level Low): 30.2 IU/L
